{
  "source": "patent US20120213789A1",
  "about": "“New Molecular Target for Treatment of Cancer” (priority 2001, published 2012)",
  "key": {"[1]": {"test_system": "ML-SV40 Prostat Cell Line", "experiment": "Dual label UC28 C/AnnexinV flow cytometry after SPB treatment", "assay_type": "cell-based", "conditions": "for Total AnnexV / Total UC28C: 72 hours, ML-SV40, UC28-GAR-CY5/AnnexV-FITC", "experimental": "(§1) Cells were grown to 70-80% confluence at 37° C. and 5% CO2 in T-75 tissue culture plastic flasks. SPB stock solution was added to final concentrations of 0.5, 5.0, 10.0, and 25.0 mM in appropriate fresh media to the cell cultures. Cells were incubated at 37° C. and 5% CO2 for 72 hours. Attached cells were then harvested using a solution of 0.05% trypsin and 0.53 mM EDTA (Invitrogen Corp.). Attached cells were then pooled with any the detached cells and washed with PBS pH 7.2. Cell numbers and percent viability were determined using Trypan blue dye exclusion and a hemacytometer. At the time of their use in an experiment the viability was usually about 85% for untreated cells and a range of about 15-70% for treated cells, with the lower viabilities found at higher SPB concentrations (Thompson C, 1995; Cory et al., 1998; van Engeland et al., 1996).\n(§2) VO1 Apoptosis Detection Kit contains: (1) Fluorocein-isothiocyante (FITC) conjugated AnnexinV [AnnexinV01] 1 ml (2) Propidium Iodide [Annex-Pi] 2.0 ml (3) 4× Binding Buffer [Annex-B] 20.0 ml. Vendor is CalTag Laboratories, Inc., 1849 Bayshore Boulevard #200 Burlingame, Calif. 94010.\n(§3) UC28(C) is 2.14 mg/ml rabbit polyclonal aliquot directed against the inventors' UC28 patented biomarker developed by UCor R&D gene discovery program. The Antibody was produced against a twenty amino acid (AA) synthetic peptide from the predicted AA sequence (AA 21-37) UCor, Inc. 840 Research Parkway Oklahoma City, Okla. 73104.\n(§4) Goat Anti-Rabbit CY5 polyclonal Fluorchrome was used as the secondary conjugate for UC28 C rabbit polyclonal antibody and a background control for UC28 C polyclonal. Vendor is Jackson ImmunoResearch Laboratories, Inc. 872 West Baltimore Pike, P.O. Box 9 West Grove, Pa. 19390.\n(§5) MsIgG-FITC mouse conjugated-FITC was used for background control for AnnexinV01. Vendor is Becicman Coulter, Inc. Diagnostic Division, 11800 SW 147th Ave. M/S 42-003, P.O. Box 169015, Miami, Floridia 33116-9015.\n(§6) A Coulter Elite engineered with a triple laser system was used to analyze all samples. Coulter control beads were used to align lasers for the dual label testing of cell samples. Laser alignment was required for both the Argon (488 nm line) laser and HeNe (633 nm line) laser. These alignments were performed prior to all measurements with the Argon laser (488 nm line) using fluorophores for FITC, RPE, PI and the HeNe laser (633 nm line) for the Cy5 fluorophores being used for the experiments described below. The histographs, voltage settings, gates, color compensation, and pressures were established prior to all sample processing. […]\n(§7) UC28 and Annexin V were co-labeled in the three cell lines to assess the induction of UC28 by SPB and its correlation to the induction of apoptosis. […] It may be noted that in previously published experiments, AnnexinV and PI were run in combination with several prostate cancer cell lines, one of which was LNCaP, but not with C4-2B or MLC-SV40. It was determined that they produced similar dose-response kinetics when exposed to 0.5-25 mM of SPB for 72 hours (Ng et al., 1989). That is, as the dose of SPB increased, so did the membrane perturbation events measured by these two methods."}, "LNCaP Prostate Cell Line": {"test_system": "LNCaP Prostate Cell Line", "experiment": "Dual label UC28/AnnexinV flow cytometry after SPB treatment", "assay_type": "cell-based, human", "conditions": "for Total AnnexV / Total UC28C: 72 hours, UC28-GAR-CY5/AnnexV-FITC", "experimental": "as §1, §2, §3, §4, §5, §6, §7"}, "LNCaP cell line": {"test_system": "LNCaP cell line", "experiment": "Dose-response kinetics of UC28 protein expression by flow cytometry", "assay_type": "cell-based, human", "experimental": "(§8) Cells were grown to 70-80% confluence at 37° C. and 5% CO2 in T-75 tissue culture plastic flasks. SPB stock solution was added to final concentrations of 0.5, 5.0, 10.0, and 25.0 mM in appropriate fresh media to the cell cultures. Cells were incubated at 37° C. and 5% CO2 for 72 hours. Attached cells were then harvested using a solution of 0.05% trypsin and 0.53 mM EDTA (Invitrogen Corp.). Attached cells were then pooled with any the detached cells and washed with PBS pH 7.2. Cell numbers and percent viability were determined using Trypan blue dye exclusion and a hemacytometer. At the time of their use in an experiment the viability was usually about 85% for untreated cells and a range of about 15-70% for treated cells, with the lower viabilities found at higher SPB concentrations (Thompson C, 1995; Cory et al., 1998; van Engeland et al., 1996). UC28(C) is 2.14 mg/ml rabbit polyclonal aliquot directed against the inventors' UC28 patented biomarker developed by UCor R&D gene discovery program. The Antibody was produced against a twenty amino acid (AA) synthetic peptide from the predicted AA sequence (AA 21-37) UCor, Inc. 840 Research Parkway Oklahoma City, Okla. 73104. Goat Anti-Rabbit CY5 polyclonal Fluorchrome was used as the secondary conjugate for UC28 C rabbit polyclonal antibody and a background control for UC28 C polyclonal. Vendor is Jackson ImmunoResearch Laboratories, Inc. 872 West Baltimore Pike, P.O. Box 9 West Grove, Pa. 19390. A Coulter Elite engineered with a triple laser system was used to analyze all samples. Coulter control beads were used to align lasers for the dual label testing of cell samples. Laser alignment was required for both the Argon (488 nm line) laser and HeNe (633 nm line) laser. These alignments were performed prior to all measurements with the Argon laser (488 nm line) using fluorophores for FITC, RPE, PI and the HeNe laser (633 nm line) for the Cy5 fluorophores being used for the experiments described below. The histographs, voltage settings, gates, color compensation, and pressures were established prior to all sample processing. […] The data confirms the biological differences in these three cell lines and provides a stronger basis upon which to assess the behavior of the UC28 gene under the same SPB treatment conditions. For both of these experiments, supernatants were collected from the same experiments as in Example 1; cells were collected and assayed for apoptosis as well as for UC28 antigen expression using antibodies to SEQ ID NO:4."}, "C4-2B cell line": {"test_system": "C4-2B cell line", "experiment": "Dose-response kinetics of UC28 protein expression by flow cytometry", "assay_type": "cell-based, human", "experimental": "as §8"}, "[2]": {"conditions": "SPB, MLC-SV40, summary of Table 5"}},
  "data": [
    {"smiles": "O=C([O-])CCCc1ccccc1.[Na+]", "note": "[SPB, 4-Phenylbutyric Acid, Sodium Salt]", "values": [
      {"measurement": "Total AnnexV", "setting": "[1]; 0.5 mM SPB", "value": 11.4, "unit": "%"},
      {"measurement": "Total UC28C", "setting": "[1]; 0.5 mM SPB", "value": 8.6, "unit": "%"},
      {"measurement": "Total AnnexV", "setting": "[1]; 5.0 mM SPB", "value": 90.2, "unit": "%"},
      {"measurement": "Total UC28C", "setting": "[1]; 5.0 mM SPB", "value": 6.8, "unit": "%"},
      {"measurement": "Total AnnexV", "setting": "[1]; 10 mM SPB", "value": 95.7, "unit": "%"},
      {"measurement": "Total UC28C", "setting": "[1]; 10 mM SPB", "value": 6.8, "unit": "%"},
      {"measurement": "Total AnnexV", "setting": "[1]; 25 mM SPB", "value": 90.7, "unit": "%"},
      {"measurement": "Total UC28C", "setting": "[1]; 25 mM SPB", "value": 9.3, "unit": "%"},
      {"measurement": "UC28 up regulation", "setting": "[1]; [2]", "value": "not"},
      {"measurement": "induction of apoptosis", "setting": "[1]; [2]", "value": "induced"},
      {"measurement": "Total AnnexV", "setting": "LNCaP Prostate Cell Line; 0.5 mM SPB", "value": 10.6, "unit": "%"},
      {"measurement": "Total UC28C", "setting": "LNCaP Prostate Cell Line; 0.5 mM SPB", "value": 28.0, "unit": "%"},
      {"measurement": "Total AnnexV", "setting": "LNCaP Prostate Cell Line; 5.0 mM SPB", "value": 44.7, "unit": "%"},
      {"measurement": "Total UC28C", "setting": "LNCaP Prostate Cell Line; 5.0 mM SPB", "value": 55.8, "unit": "%"},
      {"measurement": "Total AnnexV", "setting": "LNCaP Prostate Cell Line; 10 mM SPB", "value": 33.6, "unit": "%"},
      {"measurement": "Total UC28C", "setting": "LNCaP Prostate Cell Line; 10 mM SPB", "value": 66.4, "unit": "%"},
      {"measurement": "Total AnnexV", "setting": "LNCaP Prostate Cell Line; 25 mM SPB", "value": 89.2, "unit": "%"},
      {"measurement": "Total UC28C", "setting": "LNCaP Prostate Cell Line; 25 mM SPB", "value": 67.4, "unit": "%"},
      {"measurement": "UC28 up regulation", "setting": "LNCaP Prostate Cell Line; SPB, summary of Table 5", "value": "up regulated"},
      {"measurement": "induction of apoptosis", "setting": "LNCaP Prostate Cell Line; SPB, summary of Table 5", "value": "induced"},
      {"measurement": "UC28 membrane protein expression", "setting": "LNCaP cell line; 0.5 to 25 mM SPB, LNCaP", "value": "dramatically over expressing"},
      {"measurement": "URCO28 expression", "setting": "LNCaP cell line; LNCap treated with SPB", "value": "remained elevated"},
      {"measurement": "UC28 membrane protein expression", "setting": "C4-2B cell line; 0.5 to 25 mM SPB, C4-2B", "value": "dramatically over expressing"},
      {"measurement": "URCO28 expression", "setting": "C4-2B cell line; C4-2B treated with SPB", "value": "remained elevated"}
    ]}
  ]
}
